Experimental data published in patent EP2298282B1, “COMBINATION OF DRUGS HAVING DIFFERENT PHYSICAL PROPERTIES INTO SINGLE DOSAGE FORM” (Cocokara fine Healthcare Inc., priority 2008, dated 2009).
Values belong to the compound of their own block, whether it stands above or below them.

Experiments:
Format in all cases: physicochemical
[1] = Long-term stability (2-year) at room temperature, browning; conditions: stored at room temperature for 2 years
Text: Long-term stability (2-year) was inspected at room temerature using S/O VC·PMg obtained in Production Example 5. A non-S/O VC·PMg solution was used as a positive control, and a dispersion medium used for S/O preparation was used as a negative control.
The photograph shown in Fig. 6 was stored at room temperature for 2 years.

[2] = Dispersion in olive oil together with vitamin E (VE)
Text: The VC·PMg-surfactant composite (VC·PMg-LipoS, 5g) obtained in Production Example 12 and 0.5 g of vitamin E (VE) were dispersed in 1 kg of olive oil with the use of an agitation blade, and a clear homogeneous solution was obtained. This homogeneous solution was subjected to plastic filling with the use of a rotary soft capsule filling machine in constant amounts of 0.4 g, and soft capsules containing VC·PMg and VE with high content uniformity were obtained. Soft capsules could be produced in a twist-off form as well as in a general oval form. Similarly, constant amounts of 0.1 g were subjected to plastic filling with the use of a seamless soft capsule filling machine to obtain soft capsules containing VC·PMg and VE with high content uniformity. […] In this case, VC·PMg remained suspended in the solution. […] The formed soft capsules were packaged in easy-peel blister packs composed of a plastic film and an aluminum film. Thus, products that allow soft capsules with a low degree of hardness to be easily removed and are clean and easy to carry were obtained. Soft capsules were also packaged in press-through blister packs.

[3] = Dispersion in aqueous 0.4% Carbopol solution (electrode gel solution for iontophoresis)
Description: Carbopol (Carbopol 940, manufactured by B. F. Goodrich, 0.2 g) was dissolved in 0.3% citrate buffer (pH 6). The pH level of this solution was adjusted at 6 with sodium hydroxide to bring the total amount of the solution to 50 g, and a solution of 0.4% Carbopol (hereafter referred to as an "aqueous 0.4% Carbopol solution") was obtained. The CoQ10-surfactant composite (CoQ10-HydroS, 5 g) obtained in Production Example 14 was dispersed in 50 g of an aqueous 0.4% Carbopol solution with the use of an agitation blade, and a clear homogeneous solution was obtained (hereafter referred to as an "aqueous 0.4% Carbopol solution containing CoQ10-HydroS").
In this case, CoQ10 remained suspended in the solution. […] Thus, CoQ10, which is a low-solubility, nutritional factor, was prepared in the form of a CoQ10-surfactant composite (CoQ10-HydroS), and an aqueous solution for an electrode gel containing a nutritional factor for iontophoresis homogeneously dispersed/dissolved in water was obtained.

browning [1]: browned with the elapse of time
SMILES: O=C1O[C@H]([C@@H](O)CO)C([O-])=C1OP(=O)([O-])[O-].O=C1O[C@H]([C@@H](O)CO)C([O-])=C1OP(=O)([O-])[O-].[Mg+2].[Mg+2].[Mg+2] [VC·PMg solution, magnesium ascorbyl phosphate]

appearance of the dispersion ([2]; dispersed with 0.5 g VE in 1 kg of olive oil): a clear solution was not obtained
appearance when allowed to stand ([2]; with 0.5 g VE in 1 kg of olive oil containing 4.5 g ER-290, allowed to stand): a precipitate was observed
SMILES: O=C1O[C@H]([C@@H](O)CO)C([O-])=C1OP(=O)([O-])[O-].O=C1O[C@H]([C@@H](O)CO)C([O-])=C1OP(=O)([O-])[O-].[Mg+2].[Mg+2].[Mg+2] [VC·PMg, magnesium ascorbyl phosphate]

appearance of the dispersion ([3]; dispersed in 50 g of aqueous 0.4% Carbopol solution (pH 6)): a clear solution was not obtained
appearance when allowed to stand ([3]; in 50 g of aqueous 0.4% Carbopol solution containing 4.5 g of SLS, allowed to stand): a precipitate was observed
SMILES: COC1=C(OC)C(=O)C(C/C=C(\C)CC/C=C(\C)CC/C=C(\C)CC/C=C(\C)CC/C=C(\C)CC/C=C(\C)CC/C=C(\C)CC/C=C(\C)CC/C=C(\C)CCC=C(C)C)=C(C)C1=O [CoQ10, ubiquinone]
